Laboratory results taken from patent US7214694B2, “3-ox(adi)azolylpropanohydroxamic acids useful as procollagen C-proteinase inhibitors” (Pfizer Inc, priority 2001, dated 2007).

target: T1, human PCP (Homo sapiens, UniProt P13497); assay: fluorogenic PCP cleavage assay (PCP inhibition); format: biochemical; conditions: fluorogenic substrate 3×10^−6 M, pH 7.6, 37° C.
T1 construct: made in house; host or cells: CHO cells (stably transfected), purified from the supernatant
T1 sequence (P13497 121-986): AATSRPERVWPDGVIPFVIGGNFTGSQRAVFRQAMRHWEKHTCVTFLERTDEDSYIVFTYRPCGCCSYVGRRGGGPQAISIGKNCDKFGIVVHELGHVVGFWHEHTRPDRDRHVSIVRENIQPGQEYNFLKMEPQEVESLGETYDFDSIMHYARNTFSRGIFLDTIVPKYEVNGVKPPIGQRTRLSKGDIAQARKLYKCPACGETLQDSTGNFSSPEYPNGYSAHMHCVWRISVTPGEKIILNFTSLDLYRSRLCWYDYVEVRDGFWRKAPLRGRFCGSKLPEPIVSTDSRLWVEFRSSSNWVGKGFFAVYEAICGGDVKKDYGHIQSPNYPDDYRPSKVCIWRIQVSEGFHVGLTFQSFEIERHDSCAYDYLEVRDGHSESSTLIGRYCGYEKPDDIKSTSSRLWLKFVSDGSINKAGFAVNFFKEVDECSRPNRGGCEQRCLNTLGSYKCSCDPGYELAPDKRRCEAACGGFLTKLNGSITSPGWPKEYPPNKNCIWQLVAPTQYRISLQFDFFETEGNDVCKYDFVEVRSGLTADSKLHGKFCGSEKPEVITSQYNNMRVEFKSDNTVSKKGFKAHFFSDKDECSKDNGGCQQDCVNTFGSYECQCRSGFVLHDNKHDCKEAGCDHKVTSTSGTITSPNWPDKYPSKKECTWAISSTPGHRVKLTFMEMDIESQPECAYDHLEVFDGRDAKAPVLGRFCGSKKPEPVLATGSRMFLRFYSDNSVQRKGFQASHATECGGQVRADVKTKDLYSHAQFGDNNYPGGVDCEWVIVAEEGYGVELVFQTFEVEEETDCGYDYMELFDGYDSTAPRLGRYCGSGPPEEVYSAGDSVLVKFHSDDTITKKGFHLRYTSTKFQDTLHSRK
Method: In order to determine potency of PCP inhibitors a fluorogenic PCP cleavage assay was used. This assay is based on the template of Beekman et al. (FEBS Letters (1996), 390: 221–225) using a fluorogenic substrate. The substrate (Dabcyl-Arg-Tyr-Tyr-Arg-Ala-Asp-Asp-Ala-Asn-Val-Glu(EDANS)-NH2) contains the cleavage site of human PCP (Hojima et al., J Biol Chem (1985), 260:15996–16003). […]. The assay was performed in 96-well black fluorimeter plates and fluorescence was read continuously in a fluorimeter over 2.5 hours (λex=340 nm, λem=485 nm) at a constant 37° C. with shaking. Release of the fluorogenic signal was in linear correlation to PCP activity. Reading of the mean velocity from 30 min after start of experiment until 2.5 hours was calculated by the Biolise software. IC50 values were calculated by plotting % inhibition values against compound concentration using Tessela add in for Excel spreadsheet.

Row | SMILES | IC50 [nM]
1 | O=C(C[C@@H](CCCC1CCCCC1)c1nc(CNS(=O)(=O)c2ccccn2)no1)NO [Example 6, (3 R)-6-cyclohexyl-N-hydroxy-3-(3-[(2-pyridinylsulfonyl)amino]methyl-1,2,4-oxadiazol-5-yl)hexanamide] | 107
2 | CC(C)(C)NS(=O)(=O)NCc1noc([C@H](CCCC2CCCCC2)CC(=O)NO)n1 [Example 17, (3 R)-3-[3-({[(tert-butylamino)sulfonyl]amino}methyl)-1,2,4-oxadiazol-5-yl]-6-cyclohexyl-N-hydroxyhexanamide] | 98
3 | Cc1oc([C@H](CCCC2CCCCC2)CC(=O)NO)nc1CN1CCOCC1 [Example 72, (3R)-6-cyclohexyl-N-hydroxy-3-[5-methyl-4-(4-morpholinylmethyl)-1,3-oxazol-2-yl]hexanamide] | 37

tested on: not given; assay: not given; conditions: not given

Row | SMILES | melting point [°C]
4 | CCNCc1noc([C@H](CCCC2CCCCC2)CC(=O)NO)n1 [Example 32, (3R)-6-cyclohexyl-3-{3-[(ethylamino)methyl]-1,2,4-oxadiazol-5-yl}-N-hydroxyhexanamide] | 69.4 to 71.4
5 | CCCNCc1noc([C@H](CCCC2CCCCC2)CC(=O)NO)n1 [Example 33, (3R)-6-cyclohexyl-N-hydroxy-3-{3-[(propylamino)methyl]-1,2,4-oxadiazol-5-yl}hexanamide] | 90.4 to 91.8
6 | CC(C)CNCc1noc([C@H](CCCC2CCCCC2)CC(=O)NO)n1 [Example 35, (3R)-6-cyclohexyl-N-hydroxy-3-{3-[(isobutylamino)methyl]-1,2,4-oxadiazol-5-yl}hexanamide] | 97.8 to 99
7 | CCC(CC)NCc1noc([C@H](CCCC2CCCCC2)CC(=O)NO)n1 [Example 37, (3R)-6-cyclohexyl-3-(3-{[(1-ethylpropyl)amino]methyl}-1,2,4-oxadiazol-5-yl)-N-hydroxyhexanamide] | 102.7 to 104.3
8 | O=C(C[C@@H](CCCC1CCCCC1)c1nc(CNC2CCC2)no1)NO [Example 39, (3R)-3-{3-[(cyclobutylamino)methyl]-1,2,4-oxadiazol-5-yl}-6-cyclohexyl-N-hydroxyhexanamide] | 82 to 83.9
9 | O=C(C[C@@H](CCCC1CCCCC1)c1nc(CNC2CCCCC2)no1)NO [Example 41, (3R)-6-cyclohexyl-3-{3-[(cyclohexylamino)methyl]-1,2,4-oxadiazol-5-yl}-N-hydroxyhexanamide] | 127
10 | COCCCNCc1noc([C@H](CCCC2CCCCC2)CC(=O)NO)n1 [Example 45, (3R)-6-cyclohexyl-N-hydroxy-3-(3-{[(3-methoxypropyl)amino]methyl}-1,2,4-oxadiazol-5-yl)hexanamide] | 60
11 | O=C(C[C@@H](CCCC1CCCCC1)c1nc(CNC2CCOCC2)no1)NO [Example 50, (3R)-6-cyclohexyl-N-hydroxy-3-{3-[(tetrahydro-2H-pyran-4-ylamino)methyl]-1,2,4-oxadiazol-5-yl}hexanamide] | 108.9 to 110.3
12 | O=C(C[C@@H](CCCC1CCCCC1)c1nc(CN2CCC(O)CC2)no1)NO [Example 64, (3R)-6-cyclohexyl-N-hydroxy-3-{3-[(4-hydroxy-1-piperidinyl)methyl]-1,2,4-oxadiazol-5-yl}hexanamide] | 85
13 | O=C(C[C@@H](CCCC1CCCCC1)c1nc(CN2CCOCC2)no1)NO [Example 65, (3R)-6-cyclohexyl-N-hydroxy-3-[3-(4-morpholinylmethyl)-1,2,4-oxadiazol-5-yl]hexanamide] | 138 to 139
14 | O=C(C[C@@H](CCCC1CCCCC1)c1nc(CNC2CCCC2)co1)NO [Example 69, (3R)-6-cyclohexyl-3-{4-[(cyclopentylamino)methyl]-1,3-oxazol-2-yl}-N-hydroxyhexanamide] | 124 to 127
15 | O=C(C[C@@H](CCCC1CCCCC1)c1nc(CN2CCOCC2)co1)NO [Example 70, (3R)-6-cyclohexyl-N-hydroxy-3-[4-(4-morpholinylmethyl)-1,3-oxazol-2-yl]hexanamide] | 117 to 119
16 | Cc1oc([C@H](CCCC2CCCCC2)CC(=O)NO)nc1CNC1CCOCC1 [Example 71, (3R)-6-cyclohexyl-N-hydroxy-3-{5-methyl-4-[(tetrahydro-2H-pyran-4-ylamino)methyl]-1,3-oxazol-2-yl}hexanamide] | 108 to 110

tested on: PCP; assay: not given; conditions: 0.2M NaCl; cited from earlier work

Row | SMILES | activity of PCP, of that observed with the standard assay concentration of 0.15M [%]
17 | [Cl-].[Na+] [NaCl] | 66

same assay, conditions: 0.3M NaCl; cited from earlier work

Row | SMILES | activity of PCP, of that observed with the standard assay concentration of 0.15M [%]
18 | [Cl-].[Na+] [NaCl] | 38

same assay, conditions: 0.5M NaCl; cited from earlier work

Row | SMILES | activity of PCP, of that observed with the standard assay concentration of 0.15M [%]
19 | [Cl-].[Na+] [NaCl] | 25
